Reference: ChEMBL document CHEMBL1201862, “PubChem BioAssay data set” (2004)
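Compound exposure: 48 hours, 5 concentrations, 96-well plates. Abbreviation: GI50, concentration required for 50% inhibition of growth.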 Activity calls are given as the source filed them. Rule as the data show it: active = GI50 up to about 1.1 µM and inactive = higher.

Tests used:
Test in all cases: NCI anticancer screen, dose series, 48 h
SW-620 = tested on: SW-620
OVCAR-5 = tested on: OVCAR-5
HOP-92 = tested on: HOP-92
COLO 205 = tested on: COLO 205
LOX IMVI = tested on: LOX IMVI
CCRF-CEM = tested on: CCRF-CEM
SK-MEL-5 = tested on: SK-MEL-5
SNB-75 = tested on: SNB-75
SK-MEL-2 = tested on: SK-MEL-2
K562 = tested on: K562
A498 = tested on: A498
HL-60 = tested on: HL-60
UACC-62 = tested on: UACC-62
HT-29 = tested on: HT-29
SF-295 = tested on: SF-295
KM12 = tested on: KM12
MDA-N = tested on: MDA-N
SNB-19 = tested on: SNB-19
MDA-MB-435 = tested on: MDA-MB-435

Structure (SMILES)	GI50 (SW-620)	GI50 (OVCAR-5)	GI50 (HOP-92)	GI50 (COLO 205)	GI50 (LOX IMVI)	GI50 (CCRF-CEM)	GI50 (SK-MEL-5)	GI50 (SNB-75)	GI50 (SK-MEL-2)	GI50 (K562)	GI50 (A498)	GI50 (HL-60)	GI50 (UACC-62)	GI50 (HT-29)	GI50 (SF-295)	GI50 (KM12)	GI50 (MDA-N)	GI50 (SNB-19)	GI50 (MDA-MB-435)
O=C(OCc1ccccc1)N(CCCCN(CCCNCc1ccccc1)C(=O)OCc1ccccc1)CCCNCc1ccccc1	0.221 µM (active)	1.63 µM (inactive)	0.12 µM (active)	0.262 µM (active)	0.22 µM (active)	0.242 µM (active)	0.697 µM (active)	1.43 µM (inactive)	1.36 µM (inactive)	0.208 µM (active)	0.889 µM (active)	0.186 µM (active)	0.881 µM (active)	0.24 µM (active)	12.2 µM (inactive)	0.43 µM (active)	0.288 µM (active)	0.431 µM (active)	0.242 µM (active)
Nc1nc(S)c2c(N)n[nH]c2c1C(=O)Nc1ccc(Cl)cc1	29.6 µM (inactive)	> 100 µM (inactive)	> 100 µM (inactive)	> 100 µM (inactive)	5.41 µM (inactive)		> 100 µM (inactive)	> 100 µM (inactive)	> 100 µM (inactive)	91.6 µM (inactive)	> 100 µM (inactive)	21.2 µM (inactive)	18.4 µM (inactive)	> 100 µM (inactive)		21.4 µM (inactive)	89.7 µM (inactive)	> 100 µM (inactive)	84.5 µM (inactive)
COc1cc(/C=C2\N=C(c3ccccc3)N(c3nc4c(OC)ccc(OC)c4s3)C2=O)cc(OC)c1OC	49.7 µM (inactive)	> 100 µM (inactive)	> 100 µM (inactive)	30.4 µM (inactive)	51.8 µM (inactive)	31.2 µM (inactive)	34.8 µM (inactive)	> 100 µM (inactive)	> 100 µM (inactive)	34.8 µM (inactive)	> 100 µM (inactive)	30.4 µM (inactive)	66.1 µM (inactive)	> 100 µM (inactive)	> 100 µM (inactive)	61.8 µM (inactive)	35.8 µM (inactive)	> 100 µM (inactive)	31.3 µM (inactive)
CCCCCCCC1(N=[N+]=[N-])C(=O)Nc2ccccc2C1=O (stereo unspecified)	12.4 µM (inactive)	18.7 µM (inactive)	13.6 µM (inactive)	20 µM (inactive)	13.3 µM (inactive)	17.1 µM (inactive)	15.1 µM (inactive)	14 µM (inactive)	16.8 µM (inactive)	16.4 µM (inactive)	0.971 µM (active)	> 10 µM (inactive)	11.3 µM (inactive)	22.6 µM (inactive)	17.3 µM (inactive)	22.5 µM (inactive)	19.8 µM (inactive)	17.5 µM (inactive)	18.2 µM (inactive)
N#Cc1c(N)n(-c2cccc(C(=O)O)c2)c(=O)c2cc([N+](=O)[O-])ccc12	> 100 µM (inactive)		> 100 µM (inactive)	> 100 µM (inactive)	> 100 µM (inactive)		> 100 µM (inactive)	> 100 µM (inactive)	> 100 µM (inactive)	> 100 µM (inactive)	> 100 µM (inactive)	> 100 µM (inactive)	> 100 µM (inactive)	> 100 µM (inactive)		> 100 µM (inactive)	> 100 µM (inactive)	> 100 µM (inactive)	> 100 µM (inactive)
C=CC(C)(O)/C=C/C=C(\C)C(CC1OC1(C)C)OC(=O)/C(C)=C\C (stereo unspecified)	> 100 µM (inactive)	> 100 µM (inactive)	> 100 µM (inactive)	> 100 µM (inactive)	> 100 µM (inactive)		> 100 µM (inactive)	> 100 µM (inactive)	> 100 µM (inactive)	> 100 µM (inactive)	> 100 µM (inactive)	> 100 µM (inactive)	> 100 µM (inactive)	> 100 µM (inactive)	> 100 µM (inactive)	> 100 µM (inactive)	> 100 µM (inactive)	> 100 µM (inactive)	> 100 µM (inactive)
COC1/C=C/C(C)C(O)CC(O)/C=C/C(C)C(C(C)C(OC)C(C)CCC(=O)C(C)C(C/C=C/N(C)C=O)OC)OC(=O)/C=C/C=C(\C)CC(OC)CC2=CC(=O)O[C@@H](C(C)C(OC)C1)[C@H]2O (stereo partly specified)	< 0.005 µM (active)	0.0103 µM (active)	0.00612 µM (active)	0.00513 µM (active)	< 0.005 µM (active)	0.00687 µM (active)	< 0.005 µM (active)	< 0.005 µM (active)			< 0.005 µM (active)	< 0.005 µM (active)	0.00665 µM (active)	< 0.005 µM (active)	< 0.005 µM (active)	< 0.005 µM (active)	< 0.005 µM (active)	0.0168 µM (active)	0.0105 µM (active)
CC1=NNC(=O)C1C1CC(c2c[nH]c3ccccc23)=NN(C(N)=O)C1=O (stereo unspecified)	92.9 µM (inactive)	> 100 µM (inactive)	> 100 µM (inactive)	53.2 µM (inactive)	62.7 µM (inactive)	31 µM (inactive)	82 µM (inactive)	87.3 µM (inactive)	> 100 µM (inactive)	33 µM (inactive)	> 100 µM (inactive)	29 µM (inactive)	80.7 µM (inactive)	> 100 µM (inactive)	61.2 µM (inactive)	28.5 µM (inactive)	68.7 µM (inactive)	75 µM (inactive)	56 µM (inactive)
CN(C)/N=C1/CCC(C(F)(F)F)(C(F)(F)F)O1	40.6 µM (inactive)	58.1 µM (inactive)	32.7 µM (inactive)	16.7 µM (inactive)	33.6 µM (inactive)	30.2 µM (inactive)	21.9 µM (inactive)	26.3 µM (inactive)	20.7 µM (inactive)	40.7 µM (inactive)	21.4 µM (inactive)	28.3 µM (inactive)	28.1 µM (inactive)	41.8 µM (inactive)	39.5 µM (inactive)	20.7 µM (inactive)	48.3 µM (inactive)	41.8 µM (inactive)	27.5 µM (inactive)
CC1(c2ccc(Cl)cc2)CC(c2ccc(Cl)cc2)=C(C#N)C(=C(C#N)C#N)N1 (stereo unspecified)	12 µM (inactive)	25.8 µM (inactive)	3.25 µM (inactive)	12.8 µM (inactive)	17.3 µM (inactive)	3.11 µM (inactive)	13.9 µM (inactive)	19.4 µM (inactive)	22.9 µM (inactive)	13.8 µM (inactive)	18.5 µM (inactive)	19.7 µM (inactive)	15.3 µM (inactive)	12.8 µM (inactive)	14.7 µM (inactive)	19.9 µM (inactive)	19 µM (inactive)	17.5 µM (inactive)	18 µM (inactive)
C[C@H]1S[C@H](c2c(Cl)cccc2Cl)N2Cc3ccccc3N=C12	25.1 µM (inactive)	12 µM (inactive)	17.9 µM (inactive)	11.1 µM (inactive)	12.9 µM (inactive)	21 µM (inactive)	10.2 µM (inactive)	14.1 µM (inactive)	10.1 µM (inactive)	25.7 µM (inactive)	24.5 µM (inactive)	5.9 µM (inactive)	9.82 µM (inactive)		9.16 µM (inactive)	12 µM (inactive)	21 µM (inactive)	10.3 µM (inactive)	14.3 µM (inactive)
CN(C)c1n/c(=N/Cc2ccncc2)ss1	23.9 µM (inactive)	22.6 µM (inactive)	> 63.1 µM (inactive)	54.5 µM (inactive)	16.4 µM (inactive)	13.6 µM (inactive)	> 10 µM (inactive)	18.4 µM (inactive)		17 µM (inactive)	> 100 µM (inactive)	4.39 µM (inactive)	30.2 µM (inactive)	19.3 µM (inactive)	> 90.8 µM (inactive)	> 10 µM (inactive)	21.7 µM (inactive)	> 71.4 µM (inactive)	38.9 µM (inactive)
Cc1cc(=O)oc2cc(SC(=O)N(C)C)ccc12	> 100 µM (inactive)	77.8 µM (inactive)	> 100 µM (inactive)	> 100 µM (inactive)	> 100 µM (inactive)		> 100 µM (inactive)	> 100 µM (inactive)	> 100 µM (inactive)		> 100 µM (inactive)	> 100 µM (inactive)	57.1 µM (inactive)	> 100 µM (inactive)	> 100 µM (inactive)	> 100 µM (inactive)	> 100 µM (inactive)	> 100 µM (inactive)	> 100 µM (inactive)
O=C(NC(O)(C(F)(F)F)C(F)(F)F)c1ccccc1	> 100 µM (inactive)	> 100 µM (inactive)	> 100 µM (inactive)	> 100 µM (inactive)	> 100 µM (inactive)	> 100 µM (inactive)	> 100 µM (inactive)	> 100 µM (inactive)	> 100 µM (inactive)	> 100 µM (inactive)	> 100 µM (inactive)	> 100 µM (inactive)		> 100 µM (inactive)	> 100 µM (inactive)	> 100 µM (inactive)	> 100 µM (inactive)	> 100 µM (inactive)	> 100 µM (inactive)
O=c1[nH]c(=O)n([C@@H]2O[C@H](CO)[C@@H](O)[C@@H]2F)cc1I [FIALURIDINE]	> 100 µM (inactive)	> 100 µM (inactive)	> 100 µM (inactive)	> 100 µM (inactive)	46.3 µM (inactive)	4.8 µM (inactive)	> 100 µM (inactive)	> 100 µM (inactive)		> 100 µM (inactive)	59.4 µM (inactive)	> 100 µM (inactive)	> 100 µM (inactive)	> 100 µM (inactive)	> 100 µM (inactive)	> 100 µM (inactive)	> 100 µM (inactive)	> 100 µM (inactive)	> 100 µM (inactive)
